Reference: article PMC8791944, “GLUT3 inhibitor discovery through in silico ligand screening and in vivo validation in eukaryotic expression systems” (Scientific Reports, 2022)
Where two headings read alike, the source gives them in different places.

Key:
[1] = system: HepG2 (liver cancer) cells; experiment: MTT cancer cell viability assay, HepG2; format: cell-based; conditions: HepG2, 48 h
Procedure: (§1) A possible therapeutic application of GLUT3 inhibitors is in oncology, especially for cancers in which GLUT3 is a poor prognosis marker. We tested the effect of GLUT3 inhibitors on the cell viability of several different cancer lines: myeloid leukemia (HL60 and U937), lung cancer (A549), colorectal adenocarcinoma (Caco-2), breast cancer (MCF7), hepatocellular carcinoma (HepG2), and choriocarcinoma (BeWo) cells. GLUT3 inhibitors, at five different concentrations, ranging from 2 to 100 µM, were incubated with cancer cells for 48 h. Then, cell viability was assessed with the MTT assay. […] G3iC and G3iD also affected the leukemia cell lines but at double the concentrations of G3iB and G3iE. […] G3iB had some cytotoxic activity (CC50 < 50 µM) against the highest number of cancer cell lines (HL60, U937, A549, HepG2, and MCF7).
(§2) Cancer cell viability in the presence of GLUT3 inhibitors was assayed using the MTT Cell Viability Kit (Biotium Inc, Freemont, CA) according to manufacturer’s instructions. Cancer cells were grown in the corresponding medium, at 37 °C and 5% CO2 in a humidified incubator. The media (Gibco) for leukemia cells (HL60 and U937), A549, MCF7, BeWo, and HepG2 cells were RPMI 1640, Ham’s F-12K, DMEM:F-12, Ham’s F-12K, and EMEM, respectively, all supplemented with 10% (v/v) fetal bovine serum (HyClone). Caco-2 cells were grown in EMEM supplemented with 20% (v/v) fetal bovine serum. Cells were detached from the culture flasks with Accutase (Innovative Cell Technologies, Inc., San Diego, CA) according to manufacturer’s instructions. Cells were seeded in 96-well plates, at a density of ~ 30,000 cells/well (in 100 µl fresh media) and incubated with varying concentrations of GLUT3 inhibitors for 48 h, at 37 °C and 5% CO2 in a humidified incubator. The inhibitors were dissolved in DMSO, at 100× the final concentration, so that 1 µl of the stock inhibitor concentration was added per well, making the final DMSO concentration 1% (v/v). Therefore, controls for 100% cell viability were cells with 1% (v/v) DMSO without the inhibitors. Controls for 0% cell viability were cells treated with 0.3% (v/v) Tween 20. For MTT assay, 10 µl of MTT reagent was added in each well followed by 3–4 h incubation at 37 °C and 5% CO2 in a humidified incubator. After thoroughly mixing in 200 µl DMSO in each well, the plates were put into a plate reader (BioTek Synergy H1), and the absorbances at 570 nm and 630 nm were measured with Gen5 program (BioTek Inc.). The experimental values represent Abs570 nm-Abs630 nm with each inhibitor condition and control being the average of three wells.
(§3) Supplementary Figure S8. Effect of GLUT3 inhibitors on the viability of various cancer cell lines. Cell viability was determined by MTT assay in A549 (lung cancer), BeWo (choriocarcinoma), Caco-2 (colon cancer), HepG2 (liver cancer), HL-60 (leukemia), MCF7 (breast cancer), and U937 (histiocytic lymphoma) cell lines. GLUT3 inhibitors at concentrations of 2, 5, 10, 20, 50, and 100 µM were incubated with cells in 96-well plates for 48 hours before the addition of the MTT reagent.

[2] = system: Caco-2 (colon cancer) cells; experiment: MTT cancer cell viability assay, Caco-2; format: cell-based; conditions: Homo sapiens
Procedure: as §1, §2, §3

[3] = Caco-2, Caco2, 48 h, MTT, read-out: CC50

Structure (SMILES)	CC50 ([1]; Homo sapiens)	CC50 [2, 3]	CC50 [1]	CC50 ([2]; Caco-2, 48 h)
CC(=O)Nc1ccc(S(=O)(=O)Nc2ccc(Nc3cc(N(C)C)nc(C)n3)cc2)cc1 [G3iA, N-(4-{[(4-{[6-(dimethylamino)-2-methylpyrimidin-4-yl]amino}phenyl)amino]sulfonyl}phenyl)acetamide]	> 100 µM	> 100 µM	–	–
Cc1cccnc1OC1CCN(c2cc(N3CCCC3CO)ncn2)CC1 (stereo not shown) [G3iC]	> 100 µM	> 100 µM	–	–
Cc1cc(NC(=O)CCC2Cc3ccccc3NC2=O)nc(-c2ccccc2)n1 (stereo not shown) [G3iD]	> 100 µM	> 100 µM	–	–
O=C(Nc1cccc(Cl)c1)c1cccc(NC(=O)c2cccc([N+](=O)[O-])c2)c1 [G3iE, N-{3-[(3-chloroanilino)carbonyl]phenyl}-3-nitrobenzamide]	> 100 µM	> 50 µM	–	–
COc1ccccc1-n1c(/C=C/c2ccc(O)cc2)nc2ccc(Br)cc2c1=O [G3iB, 6-bromo-2-[(E)-2-(4-hydroxyphenyl)ethenyl]-3-(2-methoxyphenyl)quinazolin-4(3H)-one]	< 50 µM	–	39.3 ± 4 µM	> 50 µM
Cc1ccccc1CN(Cc1nnc(C(C)(C)C)o1)c1ccc2nc(O)[nH]c2c1 [G3iF]	> 100 µM	> 100 µM	–	–
